Experimental findings from patent US11021413B2, “Benzylpropargylether as nitrification inhibitors” (BASF SE, priority 2014, dated 2021) are described below.

Each structure is given as a SMILES string.

The subject of one test is nitrification. The test can be described thus: Inhibition of nitrification in soil (48 well plate, ammonium sulfate, colour reaction read at 540 nm). Conditions: dose of 5±1 ppm; field soil; up to 72 hrs at room temperature; compared to control (DMSO only). The protocol:
The compounds of the invention have been tested as follows in terms of the inhibition of nitrification:
Soil was sampled fresh from a field (e.g. Limburgerhof), dried and sieved through a 500 μm sieve. Approximately 200 mg of soil were placed into each well of a 48 well plate. […] 6 μmol ammonium sulfate was added per well as well as 4.8 mg NaClO3.
Subsequently, the samples were incubated at room temperature for up to 72 hrs. After the incubation period 64 mg KCl were added and mixed. 25 μl of the supernatant were placed into a fresh plate and 260 μl of a color reaction solution (from Merck Nr 1.11799.0100) were added. Measurements were taken with a Tecan plate Reader at 540 nm wavelength.
Inhibition is calculated as x=% activity compared to control, and converted to 100-x to give the value of inhibition, rather than activity.
`C#CCOCc1ccc(C#N)cc1` [Compound 1-30]: the “IN (best inhibition value obtained for a compound)” value is on record as 25%. Turning to `C#CCOCc1ccccc1` [Compound 1-28], the “IN (best inhibition value obtained for a compound)” value amounted to 88%. With `C#CCOCc1ccc(C)cc1` [Compound 1-29], the “IN (best inhibition value obtained for a compound)” value is listed as 37%. Regarding `C#CCOCc1ccc(C(=O)O)cc1` [Compound 1-31], the “IN (best inhibition value obtained for a compound)” value is recorded as 18%.

`C#CCOCc1ccc(C(=O)N(C)C)cc1` [Compound 1-33]: the “IN (best inhibition value obtained for a compound)” value was determined as 24%. `C#CCOCc1ccc(I)cc1` [Compound 1-32]: the “IN (best inhibition value obtained for a compound)” value is 53%. Take `C#CCOCc1ccc(OC(C)C)cc1` [Compound 1-24]: the “IN (best inhibition value obtained for a compound)” value is recorded as 18%.

Take `C#CCOCc1ccc(OCCC)cc1` [Compound 1-27]: the “IN (best inhibition value obtained for a compound)” value worked out at 59%. Regarding `C#CCOCc1ccc(F)cc1` [Compound 1-25], the “IN (best inhibition value obtained for a compound)” value is listed as 87%. In the case of `C#CCOCc1ccc(OCC)cc1` [Compound 1-26], the “IN (best inhibition value obtained for a compound)” value is recorded as 69%. In the case of `C#CCOCc1ccc(COCC#C)cc1` [Compound 1-23], the “IN (best inhibition value obtained for a compound)” value is given as 18%.

The test is the same for the next values; noted with them: dose of 10 ppm; field soil; up to 72 hrs at room temperature; compared to control (DMSO only).
`C#CCOCc1ccc(Cl)cc1` [Compound 1-15]: the “IN (best inhibition value obtained for a compound)” value stood at 58%. As for `C#CCOCc1ccc(Br)cc1` [Compound 1-2], the “IN (best inhibition value obtained for a compound)” value came to 48%.

Consider `C#CCOC(CC(n1cncn1)C(C)(C)C)c1ccc(Cl)cc1Cl` (stereo not shown) [Compound 1-22], for which the “IN (best inhibition value obtained for a compound)” value was found to be 11%. Same read-out and setting: with `C#CCOCc1ccc(OC)c(OC)c1` [Compound 1-1] the figure was 15%; with `C#CCOCc1ccc(OC)cc1` [Compound 1-8], 57%; with `C#CCOCc1ccc(Cl)cc1Cl` [Compound 1-10], 14%. The same measure, in the same setting: to `C#CCOC(Cn1cncn1)c1ccc(Oc2ccc(Cl)cc2)cc1Cl` (stereo not shown) [Compound 1-6] belongs 10%; to `C#CCOCc1ccccc1F` [Compound 1-5], 27%; to `C#CCOCc1ccc(Cl)cc1C` [Compound 1-14], 56%.

For the compound `C#CCOC(Cn1cncn1)c1ccc(F)cc1` (stereo not shown) [Compound 1-13], the “IN (best inhibition value obtained for a compound)” value amounted to 10%. For `C#CCOCc1ccc(Oc2ccc(Cl)cc2)cc1` [Compound 1-16], the “IN (best inhibition value obtained for a compound)” value came out at 11%. Still for that read-out and setting: with `C#CCOC(Cn1cncn1)c1ccc(Oc2ccc(Cl)cc2)cc1` (stereo not shown) [Compound 1-18] the figure was 10%; with `C#CCOC(Cn1cncn1)c1ccc(Oc2ccc(Cl)cc2)cc1C(F)(F)F` (stereo not shown) [Compound 1-7], 11%. Regarding `C#CCOCc1ccc(Oc2ccccc2)cc1` [Compound 1-3], the “IN (best inhibition value obtained for a compound)” value stood at 11%. As to `C#CCOC(Cn1cncn1)c1cc(OC)c(OC)c(OC)c1` (stereo not shown) [Compound 1-20], the “IN (best inhibition value obtained for a compound)” value is given as 10%. Same read-out and setting: with `C#CCOC(Cn1cncn1)c1ccc(Br)cc1` (stereo not shown) [Compound 1-12] the figure was 15%. Take `C#CCOCc1ccc(Oc2ccc(F)cc2)cc1` [Compound 1-4]: the “IN (best inhibition value obtained for a compound)” value is recorded as 15%. Consider `C#CCOCc1cccc(OC)c1` [Compound 1-9], for which the “IN (best inhibition value obtained for a compound)” value is reported as 20%. In the case of `C#CCOC(c1ccccc1)C(CCCC)n1cncn1` (stereo not shown) [Compound 1-21], the “IN (best inhibition value obtained for a compound)” value is on record as 20%.

Still in this test, the particulars now being: dose of 10 ppm; same conditions as Example 1.1.
On to `C#Cc1ccccc1` [Phenylacetylene, phenylacetylene, reference compound], for which the “IN (inhibition value), comparative example” value is on record as 7%.
